Test system: CCC cells from a breast cancer patient (ER+, PR−, HER2 (2+))
Assay: Drug-sensitivity assay of cultured CCCs (Presto Blue cell growth/viability)
Format: cell-based, human
Conditions: cultured CCCs grown in MammoCult media, 10 000 cells per well, 48 hours incubation, Presto Blue fluorescence vs vehicle-treated cells (FIG. 13)
Experimental: One or more frozen aliquot of RoboSep™ CD45-negative cell population (described in Example I and containing about 5×10^6 nucleated cells and about 1 000 to 3 000 CTCs based on Epimet™-positive staining) is cultured in the conditions described in Example II until approximately 600 000 cells are obtained (usually after 6 subculture steps). This amount of cells is sufficient for testing four distinct compounds in triplicate at four different concentrations using a plating density of approximately 5 000 to 10 000 cells/well in 96-well plates. Cells are plated onto ultra-low attachment microtiter plates at 5 000 to 10 000 cells/well in 125 μL of fresh MammoCult™ media in triplicates. Experimental and control samples (no cells added) are incubated for 24 hours at 37° C. and 5% CO2. […] Fluorescence intensity (FI) is determined using a spectrofluorometer (excitation: 530-560 nm; emission: 590 nm). Dose response curves are calculated as a percentage of untreated controls (FI590 of test agent dilution/FI590 of untreated control)×100 and the LD50 are calculated.
Cells were collected by aphaeresis from a breast cancer patient (ER+, PR−, HER2 (2+)) diagnosed with invasive lobular carcinoma and metastatic spread to bone, liver and the mediastinum. […] Cell growth/viability was assessed using Presto Blue®(Invitrogen). […] Fluorescence values use the excitation and emission peaks for resorufin. […]

Row | Structure (SMILES) | IC50 (Homo sapiens, low attachment 96-well plate, read-out: IC50 of inhibition of cell growth) | effect on cell growth (increasing concentrations)
1 | COc1cccc2c1C(=O)c1c(O)c3c(c(O)c1C2=O)C[C@@](O)(C(=O)CO)C[C@@H]3O[C@H]1C[C@H](N)[C@@H](O)[C@H](C)O1 [epirubicin] | ~1000 nM | –
2 | CC(=O)O[C@H]1C(=O)[C@@]2(C)[C@H]([C@H](OC(=O)c3ccccc3)[C@]3(O)C[C@H](OC(=O)[C@H](O)[C@@H](NC(=O)c4ccccc4)c4ccccc4)C(C)=C1C3(C)C)[C@]1(OC(C)=O)CO[C@@H]1C[C@@H]2O [taxol, paclitaxel] | – | no effect

Reference: patent US9057055B2, “Method of obtaining circulating cancer cell populations” (THE ROYAL INSTITUTION FOR THE ADVANCEMENT OF …, priority 2012, dated 2015)
